This is an account of results in ChEMBL document CHEMBL1138256 (Bioorg Med Chem Lett, 2007).

Each structure is given as a SMILES string. Active and inactive are the calls of the source. The calls are words filed in the database; no cut-off is given here.

Tested on in the first experiment: not listed separately
Briefly: (§1) Inhibition of Clostridium botulinum A recombinant light chain protease LC/A by FRET assay.
As usually defined, the IC50 is the point on the concentration scale where inhibition reaches its midpoint. With `O=C(/C=C/c1ccc(Cl)cc1Br)NO`, the IC50 was 0.7 µM.

Take `O=C(/C=C/c1ccc(Cl)cc1C(F)(F)F)NO`: the IC50 is 0.6 µM.

As to `O=C(/C=C/c1ccc(Cl)cc1[N+](=O)[O-])NO`, the IC50 came to 2 µM.

With `N#Cc1cc(Cl)ccc1/C=C/C(=O)NO`, the IC50 was 12 µM.

For `CS(=O)(=O)c1cc(Cl)ccc1/C=C/C(=O)NO`, the IC50 came out at 17 µM.

As for `Cn1c(C(=O)NO)cc2ccc(Cl)cc21`, the IC50 was 38 µM.

Turning to `CSc1cc(Cl)ccc1/C=C/C(=O)NO`, the IC50 was found to be 5.1 µM.

For `O=C(NO)c1ccc2cc(Cl)ccc2c1`, the half-maximal inhibitory concentration (IC50) was found to be 21 µM.

As for `Nc1cc(Cl)ccc1/C=C/C(=O)NO`, the IC50 worked out at 25 µM.

With `O=C(/C=C/c1ccc(Cl)cc1F)NO`, the IC50 is 4.4 µM.

Turning to `Cc1cc(Cl)ccc1/C=C/C(=O)NO`, the IC50 amounted to 0.8 µM.

Turning to `O=C(/C=C/c1ccc(Cl)cc1O)NO`, the IC50 was found to be 13 µM.

`COc1cc(Cl)ccc1/C=C/C(=O)NO`: the IC50 came out at 9 µM.

In the case of `O=C(NO)c1cc2ccc(Cl)cc2s1`, the half-inhibitory concentration (IC50) was found to be 45 µM.

As for `O=C(NO)c1ccc2cc(Br)ccc2c1`, the IC50 amounted to 71 µM.

`O=C(NO)C1=Cc2ccc(Cl)cc2C1`: the IC50 was 41 µM.

`O=C(/C=C/c1ccc(Cl)cc1Cl)NO` [CINNAMIC ACID HYDROXAMATE]: the IC50 came to 0.9 µM.

The test system of another experiment is Clostridium botulinum. The description is as §1.
For `O=C(NO)c1cc2ccc(Cl)cc2[nH]1`, the result was inactive.

For the next experiment, the system named is Clostridium botulinum. Briefly: Inhibition of Clostridium botulinum A recombinant light chain protease LC/A by at 100 uM by FRET assay.
With `O=C(NO)c1cc2ccc(Cl)cc2[nH]1`, the outcome was inactive.
